Data from patent US8795705B2, “Dermatologic compositions comprising pyrrolidone-5-carboxylic acid and at least one entity chosen from citrulline, arginine and asparagine, and uses thereof in the treatment of atopic dermatitis” (Galderma Research & Development, priority 2007, dated 2014).
Counter-ions that a name gives are not always drawn.

Assay: Assessment of hygroscopic properties: residual water weight of solutions as a function of time in a thermal container
Format: physicochemical
Conditions: 50° C., humidity 30%, each compound at 5% in water, after 120 minutes, versus water as negative control (FIG. 1)
Method: Each compound was dissolved in water (w/w) to obtain a 5% solution. To prepare a 5% two-amino acid solution, the L-arginine powder was dissolved directly in the 5% PCA sodium salt solution (w/w). To assess the hygroscopic properties of amino acids, we studied the residual water weight of different solutions as a function of time. We determined the weight of residual water in each solution after different times in an atmosphere in which temperature and humidity were controlled in a thermal container (Vötsch VC0018). The temperature used for our assays was initially set at 50° C. and later at 30° C. to approximate skin conditions more closely. Humidity was set at 30%. Using these parameters, we determined the weight of each solution before heating it and at different times during the heating. The heating lasted for 120 minutes at 50° C. and data was recorded from 45 to 120 minutes. At 30° C. the heating lasted for 135 minutes and data was recorded from 90 to 135 minutes. The residual weight expected at the end of the study which corresponds to the weight of the compound in the solution was calculated (for example, if the initial total weight for a 5% solution was 100 mg, the weight of the compound was 5 mg). The residual water weight of each solution was obtained by subtracting the expected weight of the compound from the total weight of the solution at different times. […]

| SMILES | percentage of residual water weight (evaporation of the water contained in the solutions) |
| --- | --- |
| N=C(N)NCCC[C@H](N)C(=O)O [L-Arginine] | decreased the evaporation of the water |
| O=C1CCC(C(=O)O)N1 (centres unmarked) [PCA Na, 2-Pyrrolidone-5-carboxylic acid sodium salt] | decreased the evaporation of the water |
